Laboratory results reported in patent publication US4260682A, “High sensitivity assays for angiotensin converting enzyme” (priority 1979, dated 1981).
Peptide text beside a SMILES is read from it. * marks the point of attachment. Bz = O=C(c1ccccc1)*

Biological target: T1, Guinea pig urinary ACE (Cavia porcellus, UniProt H0UWL7)
T1 sequence (H0UWL7 33-1302): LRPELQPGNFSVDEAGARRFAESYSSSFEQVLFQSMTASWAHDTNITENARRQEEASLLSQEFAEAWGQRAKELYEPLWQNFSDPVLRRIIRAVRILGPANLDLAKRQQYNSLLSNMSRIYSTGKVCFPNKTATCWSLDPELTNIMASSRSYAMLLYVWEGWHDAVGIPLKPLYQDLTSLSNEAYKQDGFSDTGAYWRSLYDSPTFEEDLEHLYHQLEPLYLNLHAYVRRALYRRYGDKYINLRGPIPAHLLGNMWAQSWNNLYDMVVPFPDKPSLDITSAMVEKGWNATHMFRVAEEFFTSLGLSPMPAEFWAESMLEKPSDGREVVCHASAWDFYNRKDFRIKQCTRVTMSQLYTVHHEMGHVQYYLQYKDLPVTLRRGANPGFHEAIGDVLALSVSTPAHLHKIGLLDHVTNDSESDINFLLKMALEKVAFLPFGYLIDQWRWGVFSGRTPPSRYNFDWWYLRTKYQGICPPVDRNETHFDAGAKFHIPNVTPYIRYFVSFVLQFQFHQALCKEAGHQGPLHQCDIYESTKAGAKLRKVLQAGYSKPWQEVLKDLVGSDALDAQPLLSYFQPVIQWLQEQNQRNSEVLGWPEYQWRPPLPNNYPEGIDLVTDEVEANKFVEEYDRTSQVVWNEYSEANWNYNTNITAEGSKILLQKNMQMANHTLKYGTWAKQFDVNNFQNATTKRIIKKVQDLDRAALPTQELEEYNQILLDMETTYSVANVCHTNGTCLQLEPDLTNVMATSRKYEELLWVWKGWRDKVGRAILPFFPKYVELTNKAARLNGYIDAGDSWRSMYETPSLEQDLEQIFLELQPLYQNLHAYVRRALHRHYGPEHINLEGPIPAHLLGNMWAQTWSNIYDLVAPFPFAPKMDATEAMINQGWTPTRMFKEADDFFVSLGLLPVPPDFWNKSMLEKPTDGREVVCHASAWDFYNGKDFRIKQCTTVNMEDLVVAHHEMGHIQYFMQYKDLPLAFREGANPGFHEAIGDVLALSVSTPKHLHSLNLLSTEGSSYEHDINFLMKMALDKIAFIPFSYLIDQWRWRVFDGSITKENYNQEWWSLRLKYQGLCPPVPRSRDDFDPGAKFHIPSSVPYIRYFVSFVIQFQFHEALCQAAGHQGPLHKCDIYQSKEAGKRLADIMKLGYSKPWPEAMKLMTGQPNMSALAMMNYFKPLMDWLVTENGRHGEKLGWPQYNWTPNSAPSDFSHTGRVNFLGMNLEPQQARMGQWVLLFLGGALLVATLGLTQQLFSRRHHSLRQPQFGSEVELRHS
Assay: Sulfate and chloride effects on ACE catalysed substrate hydrolysis
Type: biochemical
Settings: 0.05M Hepes

CC(C)C[C@H](NC(=O)[C@H](Cc1c[nH]cn1)NC(=O)CNC(=O)c1ccccc1)C(=O)O [HipHisLeu] (Bz-Gly-His-Leu-OH)
Reaction Velocity, Per Cent of Substrate Hydrolyzed in 10 minutes (pH 8.0, 0.0M NaCl, Na2 SO4 0 M): 0 Per Cent | Reaction Velocity, Per Cent of Substrate Hydrolyzed in 10 minutes (pH 8.0, 0.0M NaCl, Na2 SO4 0.1 M): 0 Per Cent | Reaction Velocity, Per Cent of Substrate Hydrolyzed in 10 minutes (pH 8.0, 0.0M NaCl, Na2 SO4 0.2 M): 0 Per Cent | Reaction Velocity, Per Cent of Substrate Hydrolyzed in 10 minutes (pH 8.0, 0.0M NaCl, Na2 SO4 0.3 M): 0 Per Cent | Reaction Velocity, Per Cent of Substrate Hydrolyzed in 10 minutes (pH 8.0, 0.0M NaCl, Na2 SO4 0.4 M): 0.1 Per Cent | Reaction Velocity, Per Cent of Substrate Hydrolyzed in 10 minutes (pH 8.0, 0.0M NaCl, Na2 SO4 0.5 M): 0.1 Per Cent | Reaction Velocity, Per Cent of Substrate Hydrolyzed in 10 minutes (pH 8.0, 0.0M NaCl, Na2 SO4 0.6 M): 0.25 Per Cent | Reaction Velocity, Per Cent of Substrate Hydrolyzed in 10 minutes (pH 8.0, 0.0M NaCl, Na2 SO4 0.7 M): 0.25 Per Cent | Reaction Velocity, Per Cent of Substrate Hydrolyzed in 10 minutes (pH 8.0, 0.0M NaCl, Na2 SO4 0.75 M): 0.25 Per Cent | Reaction Velocity, Per Cent of Substrate Hydrolyzed in 10 minutes (pH 8.0, 0.0M NaCl, Na2 SO4 0.8 M): 0.25 Per Cent | Reaction Velocity, Per Cent of Substrate Hydrolyzed in 10 minutes (pH 8.0, 0.0M NaCl, Na2 SO4 0.9 M): 0.7 Per Cent | Reaction Velocity, Per Cent of Substrate Hydrolyzed in 10 minutes (pH 8.0, 0.0M NaCl, Na2 SO4 1.2 M): 3.9 Per Cent | Reaction Velocity, Per Cent of Substrate Hydrolyzed in 10 minutes (pH 8.0, 0.1M NaCl, Na2 SO4 0 M): 0.3 Per Cent | Reaction Velocity, Per Cent of Substrate Hydrolyzed in 10 minutes (pH 8.0, 0.1M NaCl, Na2 SO4 0.4 M): 4.1 Per Cent | Reaction Velocity, Per Cent of Substrate Hydrolyzed in 10 minutes (pH 8.0, 0.1M NaCl, Na2 SO4 0.6 M): 8.3 Per Cent | Reaction Velocity, Per Cent of Substrate Hydrolyzed in 10 minutes (pH 8.0, 0.1M NaCl, Na2 SO4 0.75 M): 12.05 Per Cent | Reaction Velocity, Per Cent of Substrate Hydrolyzed in 10 minutes (pH 8.0, 0.1M NaCl, Na2 SO4 0.9 M): 12.25 Per Cent
